Results: patent US20240336606A1 (Suzhou Zelgen Biopharmaceuticals Co., Ltd., priority 2020, published 2024)

target: T1, binding of KRAS^G12C to SOS1 (Homo sapiens, UniProt Q07889); assay: Inhibition of the binding of KRAS^G12C to SOS1; settings: Tag1-SOS1 / Tag2-KRAS^G12C, 2 h incubation at room temperature; read-out: IC50 (nM), inhibitory activity on the binding of KRAS^G12C to SOS1
T1 construct: Tag1 (unspecified)
T1 sequence (Q07889 1-1333): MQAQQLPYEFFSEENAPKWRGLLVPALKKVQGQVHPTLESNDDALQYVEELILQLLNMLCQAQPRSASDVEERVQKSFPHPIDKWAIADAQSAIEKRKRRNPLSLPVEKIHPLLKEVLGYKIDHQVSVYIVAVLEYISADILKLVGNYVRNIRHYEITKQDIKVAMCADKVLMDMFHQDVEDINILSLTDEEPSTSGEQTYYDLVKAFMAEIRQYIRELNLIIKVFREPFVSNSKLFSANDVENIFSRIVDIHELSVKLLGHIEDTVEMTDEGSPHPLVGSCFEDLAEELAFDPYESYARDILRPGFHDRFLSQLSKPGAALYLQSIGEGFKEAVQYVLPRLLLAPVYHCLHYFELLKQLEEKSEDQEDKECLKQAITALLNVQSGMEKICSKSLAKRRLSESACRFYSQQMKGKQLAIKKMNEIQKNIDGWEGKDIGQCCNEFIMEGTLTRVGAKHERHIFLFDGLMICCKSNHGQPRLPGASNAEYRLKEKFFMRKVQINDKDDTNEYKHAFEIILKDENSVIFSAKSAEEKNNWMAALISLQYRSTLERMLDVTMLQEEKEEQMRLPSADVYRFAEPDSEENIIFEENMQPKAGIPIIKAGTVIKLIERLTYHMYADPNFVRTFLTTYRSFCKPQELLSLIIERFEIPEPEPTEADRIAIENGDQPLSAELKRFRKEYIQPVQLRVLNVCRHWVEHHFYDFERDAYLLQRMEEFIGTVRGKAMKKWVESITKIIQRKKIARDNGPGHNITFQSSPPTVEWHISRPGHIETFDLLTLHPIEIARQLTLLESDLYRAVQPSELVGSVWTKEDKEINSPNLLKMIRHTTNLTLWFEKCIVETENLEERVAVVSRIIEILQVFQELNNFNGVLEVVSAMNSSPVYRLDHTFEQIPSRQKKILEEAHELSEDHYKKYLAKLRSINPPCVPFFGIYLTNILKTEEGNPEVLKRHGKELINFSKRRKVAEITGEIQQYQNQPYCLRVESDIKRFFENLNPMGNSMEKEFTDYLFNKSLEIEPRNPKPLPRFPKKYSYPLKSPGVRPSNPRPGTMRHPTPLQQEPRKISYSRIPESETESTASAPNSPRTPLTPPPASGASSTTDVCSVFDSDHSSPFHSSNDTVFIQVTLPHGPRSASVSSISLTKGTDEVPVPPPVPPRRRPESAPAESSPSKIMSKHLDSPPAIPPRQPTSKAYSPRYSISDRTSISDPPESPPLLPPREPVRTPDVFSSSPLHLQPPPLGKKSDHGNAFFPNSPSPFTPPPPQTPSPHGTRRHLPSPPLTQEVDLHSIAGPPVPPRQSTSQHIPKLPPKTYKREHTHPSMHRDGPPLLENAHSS
Method: • (1) Gradient dilution of the test compounds: 10 mM mother solution (dissolved in 100% DMSO) was added to a 384-well test plate, the final content of DMSO being 0.25%.
(2) 5 μL of Tag1-SOS1 solution was added to the test plate, and 5 μL of dilution buffer was added to the control group.
(3) 5 μL of Tag2-KRAS^G12C solution was added to the test plate.
(4) 10 μL of Anti-Tag1-Tb3+ and Anti-Tag2-XL665 detection solution were added to the test plate. The plate was centrifuged at 1000 rpm for 1 min and incubated at room temperature for 2 h.
(6) The IC50 values for the compounds were finally calculated using GraphPad Prism software, and a curve was fit and plotted.
The inhibitory activity of the compounds of the examples of the present invention on the binding of KRAS^G12C enzyme to SOS1 is shown in Table 1.

| IC50 [nM] | Compound |
| --- | --- |
| 33 | COc1cc2nc(C)nc(N[C@H](C)c3cc(C(F)(F)F)cc(N)n3)c2cc1OCCOC1CC1 [Example 38, (R)—N-(1-(6-Amino-4-(trifluoromethyl)pyridin-2-yl)ethyl)-6-(2-cyclopropoxyethyloxy)-7-m ethoxy-2-methylquinazolin-4-amine] |
| 24 | COCCOc1cc2c(N[C@H](C)c3cc(C(F)(F)F)cc(N)n3)nc(C)nc2cc1OC [Example 51, (R)—N-(1-(6-Amino-4-(trifluoromethyl)pyridin-2-yl)ethyl)-7-methoxy-6-(2-methoxyethoxy)-2-methylquinazolin-4-amine] |
| 3.7 | COc1cc2nc(C)nc(N[C@H](C)c3cc(N)cc(C(F)(F)F)c3)c2cc1OCCOC1(C)COC1 [Example 61, (R)—N-(1-(3-Amino-5-(trifluoromethyl)phenyl)ethyl)-7-methoxy-2-methyl-6-(2-((3-methyloxetan-3-yl)oxy)ethoxy)quinazolin-4-amine] |
| 121 | COc1cc2nc(C)nc(N[C@H](C)c3cccc(C(F)(F)F)c3F)c2cc1OC[C@@H]1CCCN1S(C)(=O)=O [Example 20, N—((R)-1-(2-fluoro-3-(trifluoromethyl)phenyl)ethyl)-7-methoxy-2-methyl-6-(((S)-1-(methylsulfonyl)pyrrolidin-2-yl)methoxy)quinazolin-4-amine] |
| 4.6 | COc1cc2nc(C)nc(N[C@H](C)c3cccc(C(F)(F)C(C)(C)O)c3F)c2cc1OC[C@@H]1CCCN1C [Example 1] |
| 17 | COc1cc2nc(C)nc(N[C@H](C)c3cc(N)cc(C(F)(F)F)c3F)c2cc1OCCOC1CC1 [Example 35, (R)—N-(1-(5-Amino-2-fluoro-3-(trifluoromethyl)phenyl)ethyl)-6-(2-cyclopropoxyethyloxy)-7-methoxy-2-methylquinazolin-4-amine] |
| 16 | COc1cc2nc(C)nc(N[C@H](C)c3cc(N)cc(C(F)(F)F)c3)c2cc1OCC1(C(C)OC)CC1 (stereo partly drawn) [Example 65, N—((R)-1-(3-Amino-5-(trifluoromethyl)phenyl)ethyl)-7-methoxy-6-((1-(1-methoxyethyl)cyclopropyl)methoxy)-2-methylquinazolin-4-amine] |
| 3.4 | COc1cc2nc(C)nc(N[C@H](C)c3cccc(C(F)(F)C(C)(C)O)c3F)c2cc1OCCN(C)CC1CCC1 [Example 9] |
| 6.9 | COc1cc2nc(C)nc(N[C@H](C)c3cc(N)cc(C(F)(F)F)c3)c2cc1OCC1(CN2CCOCC2)CC1 [Example 15, (R)—N-(1-(3-amino-5-(trifluoromethyl)phenyl)ethyl)-7-methoxy-2-methyl-6-((1-(morpholinylmethyl)cyclopropyl)methoxy)quinazolin-4-amine] |
| 188 | COCCOc1cc2c(N[C@H](C)c3cccc(C(F)(F)C(C)(C)O)n3)nc(C)nc2cc1OC [Example 76] |
| 5.6 | COCCOc1cc2c(N[C@H](C)c3cc(N)cc(C(F)(F)F)c3)nc(C)nc2cc1OC [Example 42, (R)—N-(1-(3-Amino-5-(trifluoromethyl)phenyl)ethyl)-7-methoxy-6-(2-methoxyethoxy)-2-me thylquinazolin-4-amine] |
| 36 | COc1cc2nc(C)nc(N[C@H](C)c3cccc(C(F)(F)F)c3F)c2cc1OC[C@@H]1CCCN1C [Example 18, N—((R)-1-(2-fluoro-3-(trifluoromethyl)phenyl)ethyl)-7-methoxy-2-methyl-6-(((S)-1-methylpyrrolin-2-yl)methoxy)quinazolin-4-amine] |
| 7.3 | COc1cc2nc(C)nc(N[C@H](C)c3cc(N)cc(C(F)(F)F)c3)c2cc1OCC1(C(C)OC)CC1 (single isomer, unassigned) [Example 65B] |
| 9.4 | COc1cc2nc(C)nc(N[C@H](C)c3cccc(C(F)(F)C(C)(C)O)c3F)c2cc1OCCN(C)CC1CC(F)(F)C1 [Example 19] |
| 8.3 | COc1cc2nc(C)nc(N[C@H](C)c3cccc(C(F)(F)C(C)(C)O)c3F)c2cc1OCC1(CN(C)C)CC1 [Example 12] |
| 3.7 | COc1cc2nc(C)nc(N[C@H](C)c3cc(N)cc(C(F)(F)F)c3)c2cc1OCCCOC1CC1 [Example 53, (R)—N-(1-(3-Amino-5-(trifluoromethyl)phenyl)ethyl)-6-(3-cyclopropoxypropoxy)-7-methox y-2-methylquinazolin-4-amine] |
| 5.4 | COc1cc2nc(C)nc(N[C@H](C)c3cc(N)cc(C(F)(F)F)c3)c2cc1OCC1(N(C)C)CC1 [Example 34, (R)—N-(1-(3-Amino-5-(trifluoromethyl)phenyl)ethyl)-6-((1-(dimethylamino)cyclopropyl)methoxy)-7-methoxy-2-methylquinazolin-4-amine] |
| 1090 | COc1cc2nc(C)nc(N[C@H](C)c3cccc(C(F)(F)F)c3F)c2cc1OC[C@@H]1CCCN1C(=O)OC(C)(C)C [Example 16] |
| 13 | COc1cc2nc(C)nc(N[C@H](C)c3cc(N)cc(C(F)(F)F)c3)c2cc1OC[C@@H]1CCC(=O)N1C [Example 6, (S)-5-(((4-(((R)-1-(3-amino-5-(trifluoromethyl)phenyl)ethyl)amino)-7-methoxy-2-methylquinazolin-6-yl)oxy)methyl)-1-methylpyrrolin-2-one] |
| 7.7 | COc1cc2nc(C)nc(N[C@H](C)c3cccc(C(F)(F)C(C)(C)O)c3F)c2cc1OC[C@@H]1CNCCO1 [Example 24] |
| 18 | COc1cc2nc(C)nc(N[C@H](C)c3cc(N)cc(C(F)(F)F)c3)c2cc1OCC1(C(C)OC)CC1 (single isomer, unassigned) [Example 65A] |
| 3.6 | COc1cc2nc(C)nc(N[C@H](C)c3cc(N)cc(C(F)(F)F)c3)c2cc1OCC1(CN(C)C)CC1 [Example 11, (R)—N-(1-(3-amino-5-(trifluoromethyl)phenyl)ethyl)-6-((1-((dimethylamino)methyl)cyclopropyl)methoxy)-7-methoxy-2-methylauinazolin-4-amine] |
| 70 | COc1cc2nc(C)nc(N[C@H](C)c3cccc(C(F)(F)F)c3F)c2cc1OC[C@@H]1CCCN1 [Example 17, N—((R)-1-(2-Fluoro-3-(trifluoromethyl)phenyl)ethyl)-7-methoxy-2-methyl-6-(((S)-pyrrolin-2-yl)methoxy)quinazolin-4-amine] |
| 9.6 | COCC1(COc2cc3c(N[C@H](C)c4cc(N)cc(C(F)(F)F)c4)nc(C)nc3cc2OC)CC1 [Example 56, (R)—N-(1-(3-Amino-5-(trifluoromethyl)phenyl)ethyl)-7-methoxy-6-((1-(methoxymethyl)cyclopropyl)methoxy)-2-methylquinazolin-4-amine] |
| 31 | COc1cc2nc(C)nc(N[C@H](C)c3cc(N)cc(C(F)(F)F)c3)c2cc1OC[C@@H]1CCCN1S(C)(=O)=O [Example 32, N—((R)-1-(3-amino-5-(trifluoromethyl)phenyl)ethyl)-7-methoxy-2-methyl-6-(((S)-1-(methylsulfonyl)pyrrolidin-2-yl)methoxy)quinazolin-4-amine] |

| Compound | IC50 [nM] |
| --- | --- |
| COc1cc2nc(C)nc(N[C@H](C)c3cc(N)cc(C(F)(F)F)c3)c2cc1OCCOC1(C)CCC1 [Example 64, (R)—N-(1-(3-Amino-5-(trifluoromethyl)phenyl)ethyl)-7-methoxy-2-methyl-6-(2-(1-methylcyclobutoxy)ethoxy)quinazolin-4-amine] | 8.7 |
| COc1cc2nc(C)nc(N[C@H](C)c3cc(N)cc(C(F)(F)F)c3)c2cc1OCCOC1CCC1 [Example 49, (R)—N-(1-(3-Amino-5-(trifluoromethyl)phenyl)ethyl)-6-(2-cyclobutoxyethoxy)-7-methoxy-2-methylquinazolin-4-amine] | 4.6 |
